Results published in publication PMC7402176, “Highlighting the Biological Potential of the Brown Seaweed Fucus spiralis for Skin Applications” (Antioxidants, 2020).

Biological target: T1, collagenase
T1 construct: gene colG; commercial kit enzyme (EnzChek Gelatinase/Collagenase Assay Kit); native bacterial preparation, usually a mixture of collagenases
Experiment: fluorescence assay, fluorescein-conjugate gelatin cleavage
Format: biochemical
Conditions: positive control; EnzChek kit
From the text: fluorescence assay, fluorescein-conjugate gelatin cleavage on collagenase

Compound: O=C(O[C@@H]1Cc2c(O)cc(O)cc2O[C@@H]1c1cc(O)c(O)c(O)c1)c1cc(O)c(O)c(O)c1 [(−)-Epigallocatechin gallate]
- Collagenase: 4.8 (4.1–5.5) µg/mL
